According to PMC10421270, “Investigation on Novel E/Z 2-Benzylideneindan-1-One-Based Photoswitches with AChE and MAO-B Dual Inhibitory Activity” (Molecules, 2023):
Several values for one entry are separate records, joined by “and”; a condition that tells them apart may be missing. Identical values can stand only once. Like-named read-outs stand apart in the source and are kept apart here.

Legend:
human recombinant MAO-A = target: T1, human recombinant MAO-A (Homo sapiens, UniProt P21397); assay: biochemical; details: for inhibition at 10 µM: read-out: MAO-A % inhibition at 10 μM, human MAO-A, values in parentheses; for IC50: MAO-A IC50, human MAO-A, mean ± SD of three independent measurements
T1 construct: purchased Sigma Aldrich (Milan, Italy); host or cells: baculovirus-infected insect cells
T1 sequence (P21397 1-527): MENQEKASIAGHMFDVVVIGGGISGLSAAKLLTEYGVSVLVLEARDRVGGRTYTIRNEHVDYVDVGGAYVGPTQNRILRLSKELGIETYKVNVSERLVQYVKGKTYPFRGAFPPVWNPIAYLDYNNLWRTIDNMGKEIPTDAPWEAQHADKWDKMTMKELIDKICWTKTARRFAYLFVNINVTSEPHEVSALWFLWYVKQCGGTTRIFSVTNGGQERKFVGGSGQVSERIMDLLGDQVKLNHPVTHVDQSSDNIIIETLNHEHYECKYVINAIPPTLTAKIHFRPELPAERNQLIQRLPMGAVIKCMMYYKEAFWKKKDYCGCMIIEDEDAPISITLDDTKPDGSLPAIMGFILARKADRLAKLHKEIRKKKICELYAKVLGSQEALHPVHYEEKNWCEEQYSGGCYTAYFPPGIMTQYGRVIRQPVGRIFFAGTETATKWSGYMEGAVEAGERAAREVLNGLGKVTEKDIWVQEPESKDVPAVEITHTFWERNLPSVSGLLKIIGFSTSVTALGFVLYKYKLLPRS

human recombinant MAO B = target: T2, human recombinant MAO B (Homo sapiens, UniProt P27338); assay: biochemical; details: mean ± SD of three independent measurements
T2 construct: purchased Sigma Aldrich (Milan, Italy); host or cells: baculovirus-infected insect cells
T2 sequence (P27338 1-520): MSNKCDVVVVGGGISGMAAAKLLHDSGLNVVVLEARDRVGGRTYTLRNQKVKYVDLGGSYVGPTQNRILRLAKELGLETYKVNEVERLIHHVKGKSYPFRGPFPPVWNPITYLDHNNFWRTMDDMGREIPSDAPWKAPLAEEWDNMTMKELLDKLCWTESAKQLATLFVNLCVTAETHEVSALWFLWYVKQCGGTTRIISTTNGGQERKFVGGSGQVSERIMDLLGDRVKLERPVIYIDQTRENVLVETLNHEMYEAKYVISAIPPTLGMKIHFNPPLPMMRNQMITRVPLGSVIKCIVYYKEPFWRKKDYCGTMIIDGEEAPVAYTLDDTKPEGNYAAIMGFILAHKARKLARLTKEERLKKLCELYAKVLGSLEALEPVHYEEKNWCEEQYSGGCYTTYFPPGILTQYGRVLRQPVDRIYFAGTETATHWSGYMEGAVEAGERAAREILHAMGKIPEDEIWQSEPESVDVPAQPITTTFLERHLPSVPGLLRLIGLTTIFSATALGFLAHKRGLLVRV
Procedure: In MAOs’ inhibition assays, each test compound, at 10 μM concentration, was preincubated for 20 min at 37 °C with 50 μM kynuramine as the substrate in 0.1 M phosphate-buffered solution (PBS) pH 8.0 made 0.39 osmolar with KCl. After the addition of human recombinant MAO-A (250 U/mg) or MAO B (59 U/mg) and a further 30 min of incubation, NaOH was added, and the fluorescence read at 310/400 nm excitation/emission wavelength. […] For the kinetic study on the inhibition mechanism of MAO B, three diverse scalar concentrations of the inhibitor and seven concentrations of kynuramine were used [40, 61, 62].

hAChE [1] = target: T3, hAChE (Homo sapiens, UniProt P22303); assay: biochemical; format: biochemical
T3 construct: purchased Sigma Aldrich (Milan, Italy)

BChE from human serum = target: T4, BChE from human serum (Homo sapiens, UniProt P06276); assay: biochemical; details: for inhibition at 10 µM: read-out: BChE % inhibition at 10 μM, 10 μM, values in parentheses, n.a. = not active; for IC50: mean ± SD of three independent measurements
T4 construct: BChE from human serum; purchased Sigma Aldrich (Milan, Italy); host or cells: human serum
Procedure: Human isoforms of ChEs (human recombinant AChE and BChE from human serum) and MAOs (from baculovirus-infected insect cells), purchased from Sigma Aldrich (Milan, Italy), were used for inhibition assays. Experiments were performed in 96-well plates (Greiner Bio-One, Kremsmünster, Austria) on the Infinite M1000 Pro plate reader (Tecan, Cernusco s.N., Italy), using already published protocols [46, 58, 59, 60].

[2] = design: method as in PMID 35923722; details: ref [40]; cited from earlier work
hAChE [3] = target: T3, hAChE; design: method as in PMID 35923722; details: read-out: AChE IC50; previously reported values; ref [40]; listed as E-1; cited from earlier work
[4] = design: method as in PMID 35923722; details: Z isomer, thermal reversion; ref [40]; cited from earlier work
hAChE [5] = target: T3, hAChE; assay: AChE inhibition kinetics (Lineweaver–Burk, replot of slopes); format: biochemical
[6] = UV-B photoisomerization to the photostationary state (1H NMR); format: physicochemical; details: 10 mM in methanol, two 15 W UV-B lamps, 24 °C; almost completed
Procedure: Using ^1H NMR spectroscopy, the formation of the Z diastereoisomer can be determined with confidence. Specifically, as previously done for 1a, methanol-d4 solutions of compounds 1b–e at a concentration of about 10 mM were irradiated with UV-B light in a Pyrex NMR tube and observed until the photostationary state (PSS) was reached.
The same procedure was followed for compounds 1f–h. However, due to the poor solubility in methanol at the concentrations required for ^1H NMR analysis, 1f–h was irradiated and monitored in an acetone-d6 solution. The diastereomeric E/Z ratio of the obtained PSS-1b–h was determined by calculating the area of the easily distinguishable signals assigned to the E and Z isomers (Figure 4).
The solution was irradiated with UV-B light until reaching the PSSUV-B (almost completed in 50–80 min). Subsequently, the PSSUV-B solution was irradiated under the same conditions with UV-C light generated using two lamps (15 Watt GT15T8 Hg UV-C tube), observing the photoconversion of the cis isomer into the trans isomer without the appearance of photodegradation.

[7] = human AChE, mean ± SD of three independent measurements, read-out: AChE IC50

T4 sequence (P06276 29-602): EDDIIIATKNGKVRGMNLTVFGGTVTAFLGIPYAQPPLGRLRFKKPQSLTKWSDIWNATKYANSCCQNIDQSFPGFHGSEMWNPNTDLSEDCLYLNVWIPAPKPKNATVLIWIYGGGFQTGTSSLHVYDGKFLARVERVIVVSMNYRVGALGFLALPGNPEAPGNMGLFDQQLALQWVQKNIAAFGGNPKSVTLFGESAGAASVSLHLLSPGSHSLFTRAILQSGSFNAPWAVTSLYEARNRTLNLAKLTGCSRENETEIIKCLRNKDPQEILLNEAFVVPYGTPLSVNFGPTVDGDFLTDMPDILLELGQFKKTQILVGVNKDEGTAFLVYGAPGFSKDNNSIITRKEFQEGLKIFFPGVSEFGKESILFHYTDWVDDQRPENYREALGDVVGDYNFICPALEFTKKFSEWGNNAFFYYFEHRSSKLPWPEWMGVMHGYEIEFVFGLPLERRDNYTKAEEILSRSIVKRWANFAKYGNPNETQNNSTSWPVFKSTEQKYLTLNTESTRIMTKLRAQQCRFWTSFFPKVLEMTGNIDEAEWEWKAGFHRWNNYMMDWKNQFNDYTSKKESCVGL
T3 sequence (P22303 32-614): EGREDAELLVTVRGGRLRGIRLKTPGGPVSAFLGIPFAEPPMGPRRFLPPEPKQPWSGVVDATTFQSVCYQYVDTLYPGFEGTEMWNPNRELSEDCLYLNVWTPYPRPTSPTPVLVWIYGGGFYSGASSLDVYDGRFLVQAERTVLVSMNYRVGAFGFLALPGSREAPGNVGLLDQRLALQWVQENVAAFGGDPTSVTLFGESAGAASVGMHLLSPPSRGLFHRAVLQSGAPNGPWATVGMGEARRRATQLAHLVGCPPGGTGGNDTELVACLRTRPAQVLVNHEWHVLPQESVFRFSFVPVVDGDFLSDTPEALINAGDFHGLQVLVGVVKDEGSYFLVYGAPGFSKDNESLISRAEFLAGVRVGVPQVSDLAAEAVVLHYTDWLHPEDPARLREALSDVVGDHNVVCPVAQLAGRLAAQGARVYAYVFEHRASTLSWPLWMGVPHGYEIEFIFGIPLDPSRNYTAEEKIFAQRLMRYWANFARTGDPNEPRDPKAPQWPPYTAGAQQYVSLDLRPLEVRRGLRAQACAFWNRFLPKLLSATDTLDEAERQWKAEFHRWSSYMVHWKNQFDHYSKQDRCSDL

Row | Structure (SMILES) | inhibition at 10 µM (human recombinant MAO-A) [%] | IC50 (human recombinant MAO B) [nM] | IC50 (hAChE [1]; [7]) [nM] | inhibition at 10 µM (BChE from human serum) [%] | IC50 (BChE from human serum) [nM] | also measured
1 | CCCCN(CCCC)Cc1ccc(/C=C2\Cc3cc(OC)ccc3C2=O)cc1 [Compound E-1d, (E)-2-(4-((Dibutylamino)methyl)benzylidene)-5-methoxy-2,3-dihydro-1H-inden-1-one] | 12 | 338 ± 36 | 990 ± 50 | 28 |  | 
2 | CCCCN(C)Cc1ccc(C=C2Cc3cc(OC)ccc3C2=O)cc1 [E/Z-1e] | 25 | 651 ± 61 | 1360 ± 60 |  |  | 
3 | CCCCN(C)Cc1ccc(/C=C2\Cc3cc(OC)ccc3C2=O)cc1 [Compound E-1e, (E)-2-(4-((Butyl(methyl)amino)methyl)benzylidene)-5-methoxy-2,3-dihydro-1H-inden-1-one] | 20 | 178 ± 86 | 102 ± 19 |  | 5000 ± 450 | 
4 | CCN(CC)Cc1ccc(/C=C2\Cc3cc(OC)ccc3C2=O)cc1 [Compound E-1a, 2-(4-((diethylamino)methyl)benzylidene)-5-methoxy-2,3-dihydro-1H-inden-1-one] | 33 | 260 ± 12 |  |  | 10000 ± 150 | IC50 (hAChE [1]): 105 ± 5 nM; Z-isomer in the photostationary state (PSS) after UV-B light [2]: 75%; IC50 (hAChE [3]): 110 nM
5 | CCCN(CCC)Cc1ccc(C=C2Cc3cc(OC)ccc3C2=O)cc1 [E/Z-1c] |  | 743 ± 48 | 295 ± 45 | 20 |  | IC50 (human recombinant MAO-A): ~3000 nM and 2980 nM
6 | CCN(CC)Cc1ccc(/C=C2/Cc3cc(OC)ccc3C2=O)cc1 [Compound Z-1a] |  |  |  |  |  | half-life in MeOH at room temperature [4]: 47 days
7 | CCN(CC)Cc1ccc(C=C2Cc3cc(OC)ccc3C2=O)cc1 (mixture of isomers) [E/Z-1a] | 45 | 1590 ± 40 |  | 28 |  | IC50 (hAChE [1]): 780 ± 13 nM
8 | CCCCN(CCCC)Cc1ccc(C=C2Cc3cc(OC)ccc3C2=O)cc1 [E/Z-1d] | 37 | 382 ± 6 | 2280 ± 210 |  |  | 
9 | CCN(Cc1ccccc1)Cc1ccc(/C=C2\Cc3cc(OC)ccc3C2=O)cc1 [Compound E-1h, (E)-2-(4-((Benzyl(ethyl)amino)methyl)benzylidene)-5-methoxy-2,3-dihydro-1H-inden-1-one] | 13 | 355 ± 134 | 39 ± 1 |  | 7000 ± 10 | mechanism of AChE inhibition (hAChE [5]; Lineweaver–Burk, both Vmax and Km changed): mixed-type inhibition; Ki (hAChE [5]; replot of slopes versus [I], x-axis intercept, hAChE 0.2 U/mL, acetylthiocholine iodide 50–300 μM): 100 nM; decrease of AChE inhibitory potency on photoisomerization to Z (75% Z in PSS) (hAChE [1]; PSS mixture versus pure E isomer): about 30%
10 | COc1ccc2c(c1)CC(=Cc1ccc(CN(C)Cc3ccccc3)cc1)C2=O [E/Z-1g] | 49 | 354 ± 70 | 135 ± 62 | 40 |  | 
11 | COc1ccc2c(c1)C/C(=C\c1ccc(CN(C)C)cc1)C2=O [Compound E-1b, (E)-2-(4-((Dimethylamino)methyl)benzylidene)-5-methoxy-2,3-dihydro-1H-inden-1-one] | 33 | 686 ± 59 | 155 ± 10 |  |  | 
12 | COc1ccc2c(c1)CC(=Cc1ccc(CN(C(C)C)C(C)C)cc1)C2=O [E/Z-1f] |  | 241 ± 26 | 1410 ± 90 | 20 |  | IC50 (human recombinant MAO-A): ~3000 nM and 3190 nM
13 | CCCN(CCC)Cc1ccc(/C=C2\Cc3cc(OC)ccc3C2=O)cc1 [Compound E-1c, (E)-2-(4-((Dipropylamino)methyl)benzylidene)-5-methoxy-2,3-dihydro-1H-inden-1-one] | 15 | 479 ± 81 | 174 ± 17 | 28 |  | time to reach PSS under UV-B irradiation [6]: 50 to 80 min
14 | COc1ccc2c(c1)C/C(=C\c1ccc(CN(C)Cc3ccccc3)cc1)C2=O [Compound E-1g, (E)-2-(4-((Benzyl(methyl)amino)methyl)benzylidene)-5-methoxy-2,3-dihydro-1H-inden-1-one] | 39 | 292 ± 60 | 115 ± 4 |  | 9900 ± 110 | 
15 | CCN(Cc1ccccc1)Cc1ccc(C=C2Cc3cc(OC)ccc3C2=O)cc1 [E/Z-1h] | 39 | 358 ± 8 | 53 ± 6 |  | 10000 ± 320 | 
16 | COc1ccc2c(c1)CC(=Cc1ccc(CN(C)C)cc1)C2=O [E/Z-1b] | 32 | 839 ± 123 | 915 ± 138 | 25 |  | 
17 | COc1ccc2c(c1)C/C(=C\c1ccc(CN(C(C)C)C(C)C)cc1)C2=O [Compound E-1f, (E)-2-(4-((Diisopropylamino)methyl)benzylidene)-5-methoxy-2,3-dihydro-1H-inden-1-one] | 22 |  | 261 ± 14 |  | 10000 ± 850 | 
